Assay results from patent US12492181B2, “Gem-disubstituted piperidine melanocortin subtype-2 receptor (MC2R) antagonists and uses thereof” (Crinetics Pharmaceuticals, Inc., priority 2019, dated 2025).

Target: T1, hMC2 receptor (crude hMC2R membranes from CRE-bla-CHO-K1 cells stably expressing hMC2 receptor and hMRAP accessory protein) (Homo sapiens, UniProt Q01718)
T1 construct: crude membrane fractions
Test: hMC2 membrane binding assay ([125I]ACTH (1-39) Tyr23, SPA)
Conditions: displacement of 0.2 nM [125I]ACTH (1-39) Tyr23 from hMC2R membranes, 1.5 hours at room temperature; read-out: MC2R binding potency
Method in brief: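 Crude membranes from CRE-bla-CHO-K1 cells stably co-expressing hMC2R and hMRAP, premixed with WGA PVT SPA beads in pH 7.4 HEPES buffer (5 mM MgCl2, 1 mM CaCl2, 0.20% BSA, protease inhibitors). Compounds compete with [125I]ACTH(1-39) Tyr23, read by scintillation. Ki from non-linear regression.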

T1 sequence (Q01718 whole entry): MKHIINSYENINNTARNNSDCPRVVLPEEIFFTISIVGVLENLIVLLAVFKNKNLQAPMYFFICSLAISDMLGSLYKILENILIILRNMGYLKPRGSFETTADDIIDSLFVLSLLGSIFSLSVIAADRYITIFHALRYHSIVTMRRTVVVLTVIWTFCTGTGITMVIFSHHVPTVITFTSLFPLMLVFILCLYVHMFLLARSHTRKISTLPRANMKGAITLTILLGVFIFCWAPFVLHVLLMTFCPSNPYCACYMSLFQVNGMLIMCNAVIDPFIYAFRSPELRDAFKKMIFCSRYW
T1 sequence (Q8TCY5 whole entry partner): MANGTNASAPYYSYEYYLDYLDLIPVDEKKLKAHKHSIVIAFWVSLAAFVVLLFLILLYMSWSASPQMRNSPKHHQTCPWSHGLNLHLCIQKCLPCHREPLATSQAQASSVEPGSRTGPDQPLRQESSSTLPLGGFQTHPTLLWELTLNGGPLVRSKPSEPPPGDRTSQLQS

`CN1CC[C@H](NC(=O)C2(c3ccc(-c4cccn4C)nc3)CCN(c3ccc(C(F)(F)F)cc3F)CC2)C1` [Compound 1-173, 1-[2-fluoro-4-(trifluoromethyl)phenyl]-4-[6-(1-methyl-1H-pyrrol-2-yl)pyridin-3-yl]-N-[(3S)-1-methylpyrrolidin-3-yl]piperidine-4-carboxamide] and `CN1CC[C@H](NC(=O)C2(c3cnc(-c4cccn4C)c(F)c3)CCN(c3ccc(C(F)(F)F)cc3C#N)CC2)C1` [Compound 1-161, 1-[2-cyano-4-(trifluoromethyl)phenyl]-4-[5-fluoro-6-(1-methyl-1H-pyrrol-2-yl)pyridin-3-yl]-N-[(3S)-1-methylpyrrolidin-3-yl]piperidine-4-carboxamide] cannot be ordered by Ki: less than 10 nM for the first, less than 10 nM for the second.

`CCOc1ncccc1-c1ccc(C2(C(=O)N[C@@H]3CCN(C)C3)CCN(c3ccc(C(F)(F)F)cc3C#N)CC2)nc1` [Compound 1-22, 1-[2-cyano-4-(trifluoromethyl)phenyl]-4-{2′-ethoxy-[3,3′-bipyridin]-6-yl}-N-[(3R)-1-methylpyrrolidin-3-yl]piperidine-4-carboxamide] and `CCOc1ncccc1-c1ccc(C2(C(=O)N[C@H]3CCN(C)C3)CCN(c3ccc(C(F)(F)F)cc3Cl)CC2)nn1` [Compound 1-194, 1-[2-chloro-4-(trifluoromethyl)phenyl]-4-[6-(2-ethoxypyridin-3-yl)pyridazin-3-yl]-N-[(3S)-1-methylpyrrolidin-3-yl]piperidine-4-carboxamide] cannot be ordered by Ki: less than 10 nM for the first, less than 10 nM for the second.

`Cn1cccc1-c1ccc(C2(C(=O)NCCCN)CCN(c3ccc(C(F)(F)F)cc3C#N)CC2)cn1` [Compound 1-205, N-(3-aminopropyl)-1-[2-cyano-4-(trifluoromethyl)phenyl]-4-[6-(1-methyl-1H-pyrrol-2-yl)pyridin-3-yl]piperidine-4-carboxamide] and `Cn1cccc1-c1ccc(C2(C(=O)N[C@H]3C[C@H](N(C)C)C3)CCN(c3ccc(C(F)(F)F)cc3C#N)CC2)cn1` [Compound 1-240, 1-[2-cyano-4-(trifluoromethyl)phenyl]-4-[6-(1-methyl-1H-pyrrol-2-yl)pyridin-3-yl]-N-[(1R,3R)-3-(dimethylamino)cyclobutyl]piperidine-4-carboxamide] fall in the same range of Ki: 10 to 100 nM for the first, 10 to 100 nM for the second.

First: CN1CC[C@H](NC(=O)C2(c3ccc(-c4ccccn4)nc3)CCN(c3ccc(C(F)(F)F)cc3C#N)CC2)C1 [Compound 1-176, 4-{[2,2′-bipyridin]-5-yl}-1-[2-cyano-4-(trifluoromethyl)phenyl]-N-[(3S)-1-methylpyrrolidin-3-yl]piperidine-4-carboxamide]
Second: CN1CC[C@@H](NC(=O)C2(c3ccc(-c4ccccc4C4CC4)nc3)CCN(c3ccc(C(F)(F)F)cc3C#N)CC2)C1 [Compound 1-113, 1-[2-cyano-4-(trifluoromethyl)phenyl]-4-[6-(2-cyclopropylphenyl)pyridin-3-yl]-N-[(3R)-1-methylpyrrolidin-3-yl]piperidine-4-carboxamide]
The Ki of the first is higher: 10 to 100 nM for the first, less than 10 nM for the second. The second binds more tightly here.

`CNC[C@H](C)NC(=O)C1(c2ccc(-c3cccnc3OC)nc2)CCN(c2ccc(C(F)(F)F)cc2Cl)CC1` [Compound 1-307, 1-[2-chloro-4-(trifluoromethyl)phenyl]-4-{2′-methoxy-[2,3′-bipyridin]-5-yl}-N-[(2S)-1-(methylamino)propan-2-yl]piperidine-4-carboxamide] and `CNCCNC(=O)C1(c2cnc(-c3cccnc3OC)c(F)c2)CCN(c2ccc(C(F)(F)F)cc2Cl)CC1` [Compound 1-303, 1-[2-chloro-4-(trifluoromethyl)phenyl]-4-{3-fluoro-2′-methoxy-[2,3′-bipyridin]-5-yl}-N-[2-(methylamino)ethyl]piperidine-4-carboxamide] cannot be ordered by Ki: less than 10 nM for the first, less than 10 nM for the second.

First: Cc1sccc1-c1ccc(C2(C(=O)N[C@@H]3CCN(C)C3)CCN(c3ccc(C(F)(F)F)cc3C#N)CC2)cn1 [Compound 1-112, 1-[2-cyano-4-(trifluoromethyl)phenyl]-N-[(3R)-1-methylpyrrolidin-3-yl]-4-[6-(2-methylthiophen-3-yl)pyridin-3-yl]piperidine-4-carboxamide]
Second: CN1CC[C@@H](NC(=O)C2(c3ccc(-c4cc(F)cc(F)c4)nc3)CCN(c3ccc(C(F)(F)F)cc3C#N)CC2)C1 [Compound 1-65, 1-[2-cyano-4-(trifluoromethyl)phenyl]-4-[6-(3,5-difluorophenyl)pyridin-3-yl]-N-[(3R)-1-methylpyrrolidin-3-yl]piperidine-4-carboxamide]
The Ki of the first is lower: less than 10 nM for the first, 10 to 100 nM for the second. The first binds more tightly here.

`CCOc1ncccc1-c1ccc(C2(NC(=O)CCN(C)C)CCN(c3ccc(C(F)(F)F)cc3C#N)CC2)cn1` [Compound 2-10, N-{1-[2-cyano-4-(trifluoromethyl)phenyl]-4-{2′-ethoxy-[2,3′-bipyridin]-5-yl}piperidin-4-yl}-3-(dimethylamino)propanamide] and `CCOc1ncccc1-c1ccc(C2(C(=O)NC[C@@H](N)CO)CCN(c3ccc(C(F)(F)F)cc3C#N)CC2)cn1` [Compound 1-17, N-[(2R)-2-amino-3-hydroxypropyl]-1-[2-cyano-4-(trifluoromethyl)phenyl]-4-{2′-ethoxy-[2,3′-bipyridin]-5-yl}piperidine-4-carboxamide] cannot be ordered by Ki: less than 10 nM for the first, less than 10 nM for the second.

`CNCCNC(=O)C1(c2cnc(-c3cccn3C)c(F)c2)CCN(c2ccc(C(F)(F)F)cc2F)CC1` [Compound 1-305, 1-[2-fluoro-4-(trifluoromethyl)phenyl]-4-[5-fluoro-6-(1-methyl-1H-pyrrol-2-yl)pyridin-3-yl]-N-[2-(methylamino)ethyl]piperidine-4-carboxamide] and `CNCCNC(=O)C1(c2cnc(-c3cccn3C)c(F)c2)CCN(c2ccc(C(F)(F)F)cc2Cl)CC1` [Compound 1-310, 1-[2-chloro-4-(trifluoromethyl)phenyl]-4-[5-fluoro-6-(1-methyl-1H-pyrrol-2-yl)pyridin-3-yl]-N-[2-(methylamino)ethyl]piperidine-4-carboxamide] cannot be ordered by Ki: less than 10 nM for the first, less than 10 nM for the second.

First: CCOc1ncccc1-c1ccc(C2(NC(=O)[C@@H]3CCCN3C)CCN(c3ccc(C(F)(F)F)cc3C#N)CC2)cc1 [Compound 2-11, (2S)—N-{1-[2-cyano-4-(trifluoromethyl)phenyl]-4-[4-(2-ethoxypyridin-3-yl)phenyl]piperidin-4-yl}-1-methylpyrrolidine-2-carboxamide]
Second: CCOc1ncccc1-c1ccc(C2(C(=O)N[C@@H]3CCN(C)C3)CCN(c3ccc(C(F)(F)F)nc3C#N)CC2)cc1 [Compound 1-23, 1-[2-cyano-6-(trifluoromethyl)pyridin-3-yl]-4-[4-(2-ethoxypyridin-3-yl)phenyl]-N-[(3R)-1-methylpyrrolidin-3-yl]piperidine-4-carboxamide]
The Ki of the first is higher: 10 to 100 nM for the first, less than 10 nM for the second.

`CN1CC[C@H](C(=O)NC2(c3ccc(-c4cccn4C)nc3)CCN(c3ccc(C(F)(F)F)cc3C#N)CC2)C1` [Compound 2-46, (3S)—N-{1-[2-cyano-4-(trifluoromethyl)phenyl]-4-[6-(1-methyl-1H-pyrrol-2-yl)pyridin-3-yl]piperidin-4-yl}-1-methylpyrrolidine-3-carboxamide] and `COc1ccccc1-c1ccc(C2(NC(=O)N[C@H]3CCN(C)C3)CCN(c3ccc(C(F)(F)F)cc3C#N)CC2)cn1` [Compound 2-55, 1-{1-[2-cyano-4-(trifluoromethyl)phenyl]-4-[6-(2-methoxyphenyl)pyridin-3-yl]piperidin-4-yl}-3-[(3S)-1-methylpyrrolidin-3-yl]urea] cannot be ordered by Ki: less than 10 nM for the first, less than 10 nM for the second.

`CCOc1ccccc1-c1ncc(C2(C(=O)NCCN(C)C)CCN(c3ccc(C(F)(F)F)cc3F)CC2)cc1F` [Compound 1-289, N-[2-(dimethylamino)ethyl]-4-[6-(2-ethoxyphenyl)-5-fluoropyridin-3-yl]-1-[2-fluoro-4-(trifluoromethyl)phenyl]piperidine-4-carboxamide] and `CCOc1ccccc1-c1ncc(C2(C(=O)N[C@H]3CCN(C)C3)CCN(c3ccc(C(F)(F)F)cc3Cl)CC2)cc1F` [Compound 1-202, 1-[2-chloro-4-(trifluoromethyl)phenyl]-4-[6-(2-ethoxyphenyl)-5-fluoropyridin-3-yl]-N-[(3S)-1-methylpyrrolidin-3-yl]piperidine-4-carboxamide] cannot be ordered by Ki: less than 10 nM for the first, less than 10 nM for the second.

`CN(C)CC1(NC(=O)C2(c3ccc(-c4cccn4C)nc3)CCN(c3ccc(C(F)(F)F)cc3C#N)CC2)COC1` [Compound 1-262, 1-[2-cyano-4-(trifluoromethyl)phenyl]-N-{3-[(dimethylamino)methyl]oxetan-3-yl}-4-[6-(1-methyl-1H-pyrrol-2-yl)pyridin-3-yl]piperidine-4-carboxamide] and `COc1ccccc1-c1ccc(C2(NC(=O)O[C@H]3CCN(C)C3)CCN(c3ccc(C(F)(F)F)cc3C#N)CC2)cn1` [Compound 2-53, (3S)-1-methylpyrrolidin-3-yl N-{1-[2-cyano-4-(trifluoromethyl)phenyl]-4-[6-(2-methoxyphenyl)pyridin-3-yl]piperidin-4-yl}carbamate] cannot be ordered by Ki: less than 10 nM for the first, less than 10 nM for the second.

First: CCOc1ncccc1-c1ccc(C2(NC(=O)C3CN(C)C3)CCN(c3ccc(Cl)cc3C#N)CC2)cn1 [Compound 2-37, N-[1-(4-chloro-2-cyanophenyl)-4-{2′-ethoxy-[2,3′-bipyridin]-5-yl}piperidin-4-yl]-1-methylazetidine-3-carboxamide]
Second: CCOc1ncccc1-c1ccc(C2(C(=O)N[C@H]3CCN(C)C3)CCN(c3ncc(C(F)(F)F)cc3Cl)CC2)cn1 [Compound 1-150, 1-[3-chloro-5-(trifluoromethyl)pyridin-2-yl]-4-{2′-ethoxy-[2,3′-bipyridin]-5-yl}-N-[(3S)-1-methylpyrrolidin-3-yl]piperidine-4-carboxamide]
The Ki of the first is lower: less than 10 nM for the first, 10 to 100 nM for the second. The first binds more tightly here.

`COc1ncccc1-c1ncc(C2(C(=O)N[C@H]3CCN(C)C3)CCN(c3ccc(C(F)(F)F)nc3C#N)CC2)cc1F` [Compound 1-133, 1-[2-cyano-6-(trifluoromethyl)pyridin-3-yl]-4-{3-fluoro-2′-methoxy-[2,3′-bipyridin]-5-yl}-N-[(3S)-1-methylpyrrolidin-3-yl]piperidine-4-carboxamide] gave a Ki of less than 10 nM.
